# Data: patent US10077261B2, “Imidazolin-5-one derivative useful as FASN inhibitors for the treatment of cancer” (Janssen Pharmaceutica NV, priority 2012, dated 2018)
# Assays:
# [1] = test system: A2780 ovarian cells; experiment: A2780 ovarian cell proliferation assay in lipid reduced medium, without palmitate (MTT); assay type: cell-based; conditions: Homo sapiens, A2780, 96 h; read-out: pIC50 A2780 Ovarian Cell, Without Palmitate (converted)
# [2] = test system: A2780 ovarian cells; experiment: A2780 ovarian cell proliferation assay in lipid reduced medium, with palmitate (MTT); assay type: cell-based; conditions: Homo sapiens, A2780, 96 h; read-out: pIC50 A2780 Ovarian Cell, With Palmitate (converted)
# In short: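 In this palmitate-supplemented format, compound dilutions (30 μM down to 0.01 μM) are added to cells in lipid-reduced serum with 25 μM palmitate, 0.2% fatty-acid-free BSA and 0.25% ethanol. After four days (96 h) MTT absorbance at 544 nm is recorded and fitted by minimum sum of squares.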
# [3] = molecular target: T1, hFASN enzyme (full length) (Homo sapiens, UniProt P49327); experiment: Fatty Acid Synthase (FASN) inhibition scintillation proximity assay; assay type: biochemical; conditions: for inhibition at 10 µM: read-out: Human FASN % inhibition @ 10 μM, 10 μM test compound; for IC50: read-out: Human FASN pIC50 (converted)
# T1 construct: 10 μL hFASN enzyme (full length, 300 ng, purified in house); made in house
# In short: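 Read-out relies on hydrophobic ³H-palmitate product, formed from ³H-acetyl-CoA and malonyl-CoA, binding streptavidin imaging beads, measured at 610±20 nm after at least 24 h. Full-length enzyme (300 ng) in phosphate buffer pH 7.5 with DTT; eight compound concentrations, 0.01–30 μM.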
# T1 sequence (P49327 whole entry): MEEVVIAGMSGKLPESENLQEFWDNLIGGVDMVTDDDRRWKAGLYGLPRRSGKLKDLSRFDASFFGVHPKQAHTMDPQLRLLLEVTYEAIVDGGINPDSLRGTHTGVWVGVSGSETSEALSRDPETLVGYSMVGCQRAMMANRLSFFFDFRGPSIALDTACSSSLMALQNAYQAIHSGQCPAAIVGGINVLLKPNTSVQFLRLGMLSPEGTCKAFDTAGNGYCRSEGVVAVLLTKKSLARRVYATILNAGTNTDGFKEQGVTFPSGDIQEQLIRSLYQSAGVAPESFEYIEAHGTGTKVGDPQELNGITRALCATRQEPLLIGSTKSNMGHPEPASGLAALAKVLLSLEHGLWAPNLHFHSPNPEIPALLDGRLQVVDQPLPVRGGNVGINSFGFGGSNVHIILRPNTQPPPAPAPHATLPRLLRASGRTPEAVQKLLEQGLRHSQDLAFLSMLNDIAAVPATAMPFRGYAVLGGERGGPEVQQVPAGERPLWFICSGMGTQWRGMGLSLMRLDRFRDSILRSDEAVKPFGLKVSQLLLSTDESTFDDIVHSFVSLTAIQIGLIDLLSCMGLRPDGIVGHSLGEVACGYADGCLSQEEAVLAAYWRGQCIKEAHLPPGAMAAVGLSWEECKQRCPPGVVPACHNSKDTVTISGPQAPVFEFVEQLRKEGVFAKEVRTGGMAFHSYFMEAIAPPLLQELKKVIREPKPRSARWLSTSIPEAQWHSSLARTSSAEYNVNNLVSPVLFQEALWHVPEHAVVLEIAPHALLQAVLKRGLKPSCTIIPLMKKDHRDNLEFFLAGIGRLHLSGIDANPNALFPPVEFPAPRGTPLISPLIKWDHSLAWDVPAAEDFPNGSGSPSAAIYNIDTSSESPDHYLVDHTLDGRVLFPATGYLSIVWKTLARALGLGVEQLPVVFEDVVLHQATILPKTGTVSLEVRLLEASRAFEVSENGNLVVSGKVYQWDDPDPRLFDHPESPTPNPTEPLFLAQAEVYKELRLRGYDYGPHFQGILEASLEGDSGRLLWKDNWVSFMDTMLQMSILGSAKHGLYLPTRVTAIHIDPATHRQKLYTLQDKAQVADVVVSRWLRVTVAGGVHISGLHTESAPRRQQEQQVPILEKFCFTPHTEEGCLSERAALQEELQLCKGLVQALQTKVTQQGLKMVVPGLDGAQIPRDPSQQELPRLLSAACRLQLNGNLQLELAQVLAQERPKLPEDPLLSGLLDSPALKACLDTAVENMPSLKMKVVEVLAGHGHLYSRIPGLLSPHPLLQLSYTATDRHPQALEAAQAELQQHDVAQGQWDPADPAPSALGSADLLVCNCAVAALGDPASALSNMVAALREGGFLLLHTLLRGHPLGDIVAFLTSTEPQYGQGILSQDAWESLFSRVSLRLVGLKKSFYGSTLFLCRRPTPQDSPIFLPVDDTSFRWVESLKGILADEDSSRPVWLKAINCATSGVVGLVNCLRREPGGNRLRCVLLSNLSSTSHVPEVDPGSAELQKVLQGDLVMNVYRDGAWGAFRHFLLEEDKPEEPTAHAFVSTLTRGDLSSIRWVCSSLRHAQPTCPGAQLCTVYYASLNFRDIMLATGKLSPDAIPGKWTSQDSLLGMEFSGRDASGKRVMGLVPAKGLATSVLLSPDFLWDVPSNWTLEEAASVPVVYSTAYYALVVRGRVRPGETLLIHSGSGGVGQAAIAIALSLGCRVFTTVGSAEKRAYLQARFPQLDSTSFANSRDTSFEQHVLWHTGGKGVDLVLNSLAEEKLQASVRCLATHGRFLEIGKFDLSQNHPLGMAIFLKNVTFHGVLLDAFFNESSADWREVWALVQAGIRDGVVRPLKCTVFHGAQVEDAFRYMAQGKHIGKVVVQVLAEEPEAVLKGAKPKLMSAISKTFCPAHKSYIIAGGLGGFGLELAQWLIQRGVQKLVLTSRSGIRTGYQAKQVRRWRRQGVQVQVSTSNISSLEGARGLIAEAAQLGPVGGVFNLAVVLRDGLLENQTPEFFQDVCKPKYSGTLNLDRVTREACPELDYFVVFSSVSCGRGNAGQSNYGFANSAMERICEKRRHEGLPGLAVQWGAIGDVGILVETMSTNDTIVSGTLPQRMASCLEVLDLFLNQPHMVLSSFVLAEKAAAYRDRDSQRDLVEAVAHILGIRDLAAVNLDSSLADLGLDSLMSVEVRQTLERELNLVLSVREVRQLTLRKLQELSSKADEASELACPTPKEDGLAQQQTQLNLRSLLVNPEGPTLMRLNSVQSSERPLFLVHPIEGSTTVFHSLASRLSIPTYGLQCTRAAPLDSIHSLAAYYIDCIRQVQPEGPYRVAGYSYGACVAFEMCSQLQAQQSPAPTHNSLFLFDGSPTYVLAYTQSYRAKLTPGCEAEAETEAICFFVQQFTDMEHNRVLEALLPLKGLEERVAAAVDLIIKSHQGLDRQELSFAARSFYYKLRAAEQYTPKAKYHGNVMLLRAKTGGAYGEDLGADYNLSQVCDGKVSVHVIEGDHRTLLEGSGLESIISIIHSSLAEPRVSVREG
SMILES,IC50 [1],IC50 [2],inhibition at 10 µM [3],IC50 [3]
"CC(C)S(=O)(=O)c1cccc(-c2ccc(C3=NC4(CC4)C(=O)N3CC3CN(C(=O)C4CC4)C3)c(F)c2)c1 [compound 631, 6-{[1-(Cyclopropylcarbonyl)azetidin-3-yl]methyl}-5-{3-fluoro-3′-[(1-methylethyl)sulfonyl]biphenyl-4-yl}-4,6-diazaspiro[2.4]hept-4-en-7-one]",5.89 µM,> 10 µM,47%,8.51 µM
"CC(C)S(=O)(=O)c1cccc(-c2ccc(C3=NC4(CC4)C(=O)N3C[C@@H]3CCN(C(=O)C4CC4)C3)c(F)c2)c1 [compound 632, 6-{[(3R)-1-(Cyclopropylcarbonyl)pyrrolidin-3-yl]methyl}-5-{3-fluoro-3′-[(1-methylethyl)sulfonyl]biphenyl-4-yl}-4,6-diazaspiro[2.4]hept-4-en-7-one]",~2.4 µM,> 10 µM,70%,2.75 µM
"Cc1cc(-c2cccc(S(C)(=O)=O)c2)ccc1C1=NC2(CC2)C(=O)N1C[C@@H]1CCN(C(=O)C2CC2)C1 [compound 633, 6-{[(3R)-1-(Cyclopropylcarbonyl)pyrrolidin-3-yl]methyl}-5-[3-methyl-3′-(methylsulfonyl)biphenyl-4-yl]-4,6-diazaspiro[2.4]hept-4-en-7-one]",5.25 µM,> 10 µM,56%,8.32 µM
"CS(=O)(=O)c1cccc(-c2ccc(C3=NC4(CC4)C(=O)N3C[C@@H]3CCN(C(=O)C4CC4)C3)c(F)c2)c1 [compound 634, 6-{[(3R)-1-(Cyclopropylcarbonyl)pyrrolidin-3-yl]methyl}-5-[3-fluoro-3′-(methylsulfonyl)biphenyl-4-yl]-4,6-diazaspiro[2.4]hept-4-en-7-one]",2 µM,> 10 µM,68%,3.02 µM
"Cc1cc(-c2cccc(S(=O)(=O)C(C)C)c2)ccc1C1=NC2(CC2)C(=O)N1C[C@@H]1CCN(C(=O)C2CC2)C1 [compound 636, 6-{[(3R)-1-(Cyclopropylcarbonyl)pyrrolidin-3-yl]methyl}-5-{3-methyl-3′-[(1-methylethyl)sulfonyl]biphenyl-4-yl}-4,6-diazaspiro[2.4]hept-4-en-7-one]",~5.89 µM,> 10 µM,59%,6.76 µM
"Cc1cc(-c2cccc(S(=O)(=O)C3CC3)c2)ccc1C1=NC2(CC2)C(=O)N1CC1CN(C(=O)C2CC2)C1 [compound 640, 6-{[1-(Cyclopropylcarbonyl)azetidin-3-yl]methyl}-5-[3′-(cyclopropylsulfonyl)-3-methylbiphenyl-4-yl]-4,6-diazaspiro[2.4]hept-4-en-7-one]",8.32 µM,> 10 µM,64%,5.37 µM
"Cc1cc(-c2cccc(S(=O)(=O)C3CC3)c2)ccc1C1=NC2(CC2)C(=O)N1C[C@@H]1CCN(C(=O)C2CC2)C1 [compound 646, 6-{[(3R)-1-(Cyclopropylcarbonyl)pyrrolidin-3-yl]methyl}-5-[3′-(cyclopropylsulfonyl)-3-methylbiphenyl-4-yl]-4,6-diazaspiro[2.4]hept-4-en-7-one]",2.45 µM,> 10 µM,88%,1.17 µM

# The next lines start with the values.
IC50 [1],IC50 [2],inhibition at 10 µM [3],IC50 [3],SMILES
2.51 µM,> 10 µM,74%,2.57 µM,"Cn1c(-c2ccc(C3=NC4(CC4)C(=O)N3CC3CN(C(=O)C4CC4)C3)c(F)c2)nc2ccccc21 [compound 648, 6-{[1-(Cyclopropylcarbonyl)azetidin-3-yl]methyl}-5-[2-fluoro-4-(1-methyl-1H-benzimidazol-2-yl)phenyl]-4,6-diazaspiro[2.4]hept-4-en-7-one]"
4.9 µM,> 10 µM,84%,1.35 µM,"Cc1cc(-c2cccc(SC3CC3)c2)ccc1C1=NC2(CC2)C(=O)N1CC1CN(C(=O)C2CC2)C1 [compound 650, 6-{[1-(Cyclopropylcarbonyl)azetidin-3-yl]methyl}-5-[3′-(cyclopropylsulfanyl)-3-methylbiphenyl-4-yl]-4,6-diazaspiro[2.4]hept-4-en-7-one]"
2.75 µM,> 10 µM,77%,3.09 µM,"O=C(C1CC1)N1CC(CN2C(=O)C3(CC3)N=C2c2ccc(-c3cccc(S(=O)(=O)C4CC4)c3)cc2F)C1 [compound 651, 6-{[1-(Cyclopropylcarbonyl)azetidin-3-yl]methyl}-5-[3′-(cyclopropylsulfonyl)-3-fluorobiphenyl-4-yl]-4,6-diazaspiro[2.4]hept-4-en-7-one]"
4.17 µM,> 10 µM,71%,3.02 µM,"Cn1c(-c2ccc(C3=NC4(CC4)C(=O)N3CC3CN(C(=O)C4CC4)C3)c(F)c2)nc2ccc(F)cc21 [compound 653, 6-{[1-(Cyclopropylcarbonyl)azetidin-3-yl]methyl}-5-[2-fluoro-4-(6-fluoro-1-methyl-1H-benzimidazol-2-yl)phenyl]-4,6-diazaspiro[2.4]hept-4-en-7-one]"
2.19 µM,> 10 µM,83%,1.15 µM,"Cc1nc2ccc(-c3ccc(C4=NC5(CC5)C(=O)N4CC4CN(C(=O)C5CC5)C4)c(F)c3)cc2n1C [compound 654, 6-{[1-(Cyclopropylcarbonyl)azetidin-3-yl]methyl}-5-[4-(1,2-dimethyl-1H-benzimidazol-6-yl)-2-fluorophenyl]-4,6-diazaspiro[2.4]hept-4-en-7-one]"
~2.88 µM,> 10 µM,87%,3.72 µM,"COC(=O)N1CC[C@@H](CN2C(=O)C3(CCOCC3)N=C2c2ccc(-c3ccc4cccnc4c3)cc2)C1 [compound 664, Methyl (3S)-3-{[4-oxo-2-(4-quinolin-7-ylphenyl)-8-oxa-1,3-diazaspiro[4.5]dec-1-en-3-yl]methyl}pyrrolidine-1-carboxylate]"
> 10 µM,> 10 µM,63%,4.17 µM,"COC(=O)N1CC[C@@H](CN2C(=O)C3(CCOC3)N=C2c2ccc(-c3ccc4cccnc4c3)cc2)C1 (stereo partly drawn) [compound 683, Methyl (3S)-{[4-oxo-2-(4-quinolin-7-ylphenyl)-7-oxa-1,3-diazaspiro[4.4]non-1-en-3-yl]methyl}pyrrolidin-1-carboxylate]"
> 10 µM,> 10 µM,34%,> 10 µM,"Cc1cc(-c2cccc(S(C)(=O)=O)c2)ccc1C1=NC2(CC2)C(=O)N1CC1CN(C(=O)C2CC2)C1 [compound 775, 6-((1-(cyclopropanecarbonyl)azetidin-3-yl)methyl)-5-(3-methyl-3′-(methylsulfonyl)-[1,1′-biphenyl]-4-yl)-4,6-diazaspiro[2.4]hept-4-en-7-one]"
> 10 µM,> 10 µM,25%,> 10 µM,"Cc1cc(-c2cccc(S(=O)(=O)C(C)C)c2)ccc1C1=NC2(CC2)C(=O)N1CC1CN(C(=O)C2CC2)C1 [compound 776, 6-((1-(cyclopropanecarbonyl)azetidin-3-yl)methyl)-5-(3′-(isopropylsulfonyl)-3-methyl-[1,1′-biphenyl]-4-yl)-4,6-diazaspiro[2.4]hept-4-en-7-one]"
